Patent US7923573B2, “Benzene compound having 2 or more substituents” (Daiichi Sankyo Company, Limited, priority 2004, dated 2011)
pEC50: −log10 of the molar value.

Molecular target: T1, LXRα (Homo sapiens, UniProt Q13133)
T1 construct: expressed in transfected cells; host or cells: CV-1 African green monkey kidney cells (ATCC CCL-70)
T1 sequence (Q13133 1-447): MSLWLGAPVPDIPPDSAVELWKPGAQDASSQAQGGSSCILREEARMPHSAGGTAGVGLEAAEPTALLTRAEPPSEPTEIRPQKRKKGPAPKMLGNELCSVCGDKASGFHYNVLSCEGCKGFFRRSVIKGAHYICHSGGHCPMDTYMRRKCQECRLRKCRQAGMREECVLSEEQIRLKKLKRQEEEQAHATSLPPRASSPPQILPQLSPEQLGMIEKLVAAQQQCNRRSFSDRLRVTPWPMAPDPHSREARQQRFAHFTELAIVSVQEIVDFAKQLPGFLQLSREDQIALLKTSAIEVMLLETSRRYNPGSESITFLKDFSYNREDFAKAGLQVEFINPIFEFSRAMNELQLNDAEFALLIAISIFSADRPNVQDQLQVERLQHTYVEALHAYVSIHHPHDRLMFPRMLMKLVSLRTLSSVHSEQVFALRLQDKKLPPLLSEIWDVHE
T1 sequence (P19793 1-462 partner): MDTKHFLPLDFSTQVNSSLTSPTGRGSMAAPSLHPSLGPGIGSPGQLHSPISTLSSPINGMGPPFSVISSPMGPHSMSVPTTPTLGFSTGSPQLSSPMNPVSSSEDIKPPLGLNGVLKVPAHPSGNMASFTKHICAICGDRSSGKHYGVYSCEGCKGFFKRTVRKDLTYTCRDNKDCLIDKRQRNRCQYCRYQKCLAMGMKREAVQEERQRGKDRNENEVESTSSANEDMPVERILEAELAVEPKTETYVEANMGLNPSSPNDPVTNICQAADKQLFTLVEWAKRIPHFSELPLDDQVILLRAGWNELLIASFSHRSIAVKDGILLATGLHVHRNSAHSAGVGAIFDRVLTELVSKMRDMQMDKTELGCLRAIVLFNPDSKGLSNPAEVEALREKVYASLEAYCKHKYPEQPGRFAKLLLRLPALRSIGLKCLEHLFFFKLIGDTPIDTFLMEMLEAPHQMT
Test: Co-transfection assay (LXR/LXRE luciferase reporter), LXRα
Format: cell-based
Settings: CV-1 cells transfected with hLXRα and LXRE luciferase reporter; agonist activity; read-out: EC50 value against LXRα
Text: The effect of activating or inhibiting LXR transcription activity of a test compound can be measured by a co-transfection which is a cell-based assay. LXR is known to function by forming a heterodimer with RXR. In a co-transfection assay, LXR and RXR expression plasmids and a luciferase reporter expression plasmid containing three copies of an LXR-RXR heterodimer-responding DNA sequence are first inserted into mammalian cells by transient transfection. Next, when the transfected cells are treated with a test compound having LXR agonist activity, the transcription activating effect of LXR is enhanced, and the LXR agonist activity of a test compound can be measured as an increase in luciferase activity.
(1) CV-1 African green monkey kidney cells (ATCC CCL-70)
(2) Co-transfection expression plasmid, pcDNA-hLXRα or pcDNA-hLXRβ, reporter (LXREx3-pTAL-Luc Vector)
(3) Lipofect AMINE, Plus Reagent (Invitrogen) transfection reagent
(4) Cell lysis buffer [Passive lysis buffer; 5× (Promega Corporation) is diluted with distilled water]
(5) Luciferase assay reagent (Promega Corporation)
(6) Medium (Dulbecco's Modified Eagle Medium (Gibco) 500 ml, Gentamicin Reagent Solution (Gibco) 2.5 ml, 2 mM L-Gluta Max I Supplement (Gibco) 5.0 ml, MEM Sodium pyruvate solution (Gibco) 5.0 ml, penicillin-streptomycin (Gibco) 5.0 ml, charcoal/dextran-treated FBS (HyClone) 50 ml) (7) OPTI-MEM I Reduced-Serum Medium (Gibco) Adjustment of Screening Reagents
The aforementioned CV-1 cells were disseminated into a 96-well assay plate (Costar 3610) to a concentration of 2×10^4 cells/[…]/well followed by incubating overnight at 37° C.
DNA transfection was carried out according to the protocol provided with the transfection reagent. 10 μl of OPTI-MEM I Reduced-Serum Medium (Gibco) and 0.5 μl of Lipofect AMINE (Invitrogen) were added to two 50 ml tubes followed by shaking the mixed solutions to obtain Solution A. The substances of (1) below were respectively added to each tube followed by shaking the mixed solutions and allowing to stand undisturbed for 15 minutes to obtain Solution B. In addition, Solution C was obtained by carrying out the same procedure using the substances of (2) below.
(1) 10 μl of OPTI-MEM I Reduced-Serum Medium, 1 μl of Plus Reagent (Invitrogen) and 0.1 μg of DNA [PCMX-LXRα (33 ng) and LXRE (66 ng)];
(2) 10 μl of OPTI-MEM I Reduced-Serum Medium, 1 μl of Plus Reagent (Invitrogen) and 0.1 μg of DNA [PCMX-LXRβ (33 ng) and LXRE (66 ng)].
The entire amount of the aforementioned Solution A was respectively added to the aforementioned Solution B followed by shaking and allowing to stand undisturbed for 15 minutes to obtain LXRα solution. In addition, LXRβ solution was obtained by carrying out the same procedure using the aforementioned Solutions C and A.
After removing the medium from the 96-well assay plate used to Incubate the CV-1 cells as described above by decanting, and completely removing any moisture, 50 μl/well of OPTI-MEM I Reduced-Serum Medium were added to each well followed by addition of the aforementioned LXRα solution or LXRβ solution to each well at 20 μl/well and incubating for 3 hours at 37° C.
Three hours later, 20% charcoal FBS-DMEM was added to each well at 70 μl/well. FBS-DMEM used for the medium was prepared by mixing charcoal and dextran-treated FBS at a ratio of 9:1. Next, test compounds adjusted to concentrations of 1 mM, 0.3 mM, 0.1 mM, 30 μM, 10 μM, 3 μM, 1 μM or 0 μM with DMSO were added to each well at 1.4 μl/well. […]

pEC50, ≥ 5.30:
CC(C)(C)OC(=O)c1c(COc2ccc(-c3ccc(CC(=O)O)cc3)c(F)c2)ccc(C(F)(F)F)c1O [Example 14, (4′-{[2-(tert-Butoxycarbonyl)-3-hydroxy-4-(trifluoromethyl)benzyl]oxy}-2′-fluoro-1,1′-biphenyl-4-yl)acetic acid]
CC(C)(C)OC(=O)c1c(COc2ccc(-c3ccc(C4(C(=O)O)CC4)cc3)cc2)ccc(C(F)(F)F)c1O [Example 15, 1-(4′-{[2-(tert-Butoxycarbonyl)-3-hydroxy-4-(trifluoromethyl)benzyl]oxy}-1,1′-biphenyl-4-yl)cyclopropanecarboxylic acid]
CN(C)C(=O)Cc1ccc(-c2ccc(OCc3ccc(C(F)(F)F)c(O)c3C(=O)OC(C)(C)C)cc2)cc1 [Example 49, tert-Butyl 6-[({4′-[2-(dimethylamino)-2-oxoethyl]-1,1′-biphenyl-4-yl}oxy)methyl]-2-hydroxy-3-(trifluoromethyl)benzoate]
CNC(=O)Cc1ccc(-c2ccc(OCc3ccc(C(F)(F)F)c(O)c3C(=O)OC(C)(C)C)cc2)cc1 [Example 50, tert-Butyl 2-hydroxy-6-[({4′-[2-(methylamino)-2-oxoethyl]-1,1′-biphenyl-4-yl}oxy)methyl]-3-trifluoromethylbenzoate]
CC(C)(C)OC(=O)c1c(COc2ccc(-c3cc(CC(=O)O)ccc3F)cc2)ccc(C(F)(F)F)c1O [Example 52, (4′-{[2-(tert-Butoxycarbonyl)-3-hydroxy-4-(trifluoromethyl)benzyl]oxy}-6-fluoro-1,1′-biphenyl-3-yl)acetic acid]
